Measurements published in patent US10906916B2, “Thienopyrimidinones as ubiquitin-specific protease 7 inhibitors” (Valo Early Discovery, Inc., priority 2015, dated 2021).

What follows are molecules tested against T1, USP7 (construct USP7 (208-1102) 6*His) (Homo sapiens, UniProt Q93009) (assay: USP7 Assay (Ubiquitin-Rhodamine110 Assay)). Details: Ub-Rh110 substrate 25 nM, enzyme 62.5 pM, 30 min preincubation; read-out: USP7_IC50.
T1 construct: USP7, construct USP7 (208-1102) 6*His, Viva Biotech; 6xHis; purchased Viva Biotech
Assay type: biochemical
Experimental: Each assay was performed in a final volume of 15 μL in assay buffer containing 20 mM Tris-HCl (pH 8.0, (1M Tris-HCl, pH 8.0 solution; Corning 46-031-CM)), 1 mM GSH (L-Glutathione reduced; Sigma #G4251), 0.03% BGG (0.22 μM filtered, Sigma, #G7516-25G), and 0.01% Triton X-100 (Sigma, #T9284-10L). Nanoliter quantities of either an 8-point or 10-point, 3-fold serial dilution in DMSO was pre-dispensed into assay plates (Perkin Elmer, ProxiPlate-384 F Plus, #6008269) for a final test concentration range of either 25 μM to 11 nM or 25 μM to 1.3 nM, respectively. The final concentration of the enzyme (USP7, construct USP7 (208-1102) 6*His, Viva Biotech) in the assay was 62.5 pM. Final substrate (Ub-Rh110; Ubiquitin-Rhodamine 110, R&D Systems #U-555) concentration was 25 nM with [Ub-Rh110]<<Km. 5 μL of 2× enzyme was added to assay plates (pre-stamped with compound) preincubated with USP7 for 30 min and then 5 μL of 2× Ub-Rh110 was added to assay plates. Plates were incubated stacked for 20 min at room temperature before addition of 5 μL, of stop solution (final concentration of 1.0 mM citric acid in assay buffer (Sigma, #251275-500G)). Fluorescence was read on the Envision (Excitation at 485 nm and Emission at 535 nm; Perkin Elmer) or on the PheraSTAR (Excitation at 485 nm and Emission at 535 nm; BMG Labtech).
Data from USP7 Assay was reported as percent inhibition (inh) compared with control wells based on the following equation: % inh=1−((FLU−AveLow)/(AveHigh−AveLow)) where FLU=measured Fluorescence; AveLow=average Fluorescence of no enzyme control (n=16); and AveHigh=average Fluorescence of DMSO control (n=16). IC50 values were determined by curve fitting of the standard 4 parameter logistic fitting algorithm included in the Activity Base software package: IDBS XE Designer Model205. Data is fitted using the Levenburg Marquardt algorithm.

T1 sequence (Q93009 208-1102): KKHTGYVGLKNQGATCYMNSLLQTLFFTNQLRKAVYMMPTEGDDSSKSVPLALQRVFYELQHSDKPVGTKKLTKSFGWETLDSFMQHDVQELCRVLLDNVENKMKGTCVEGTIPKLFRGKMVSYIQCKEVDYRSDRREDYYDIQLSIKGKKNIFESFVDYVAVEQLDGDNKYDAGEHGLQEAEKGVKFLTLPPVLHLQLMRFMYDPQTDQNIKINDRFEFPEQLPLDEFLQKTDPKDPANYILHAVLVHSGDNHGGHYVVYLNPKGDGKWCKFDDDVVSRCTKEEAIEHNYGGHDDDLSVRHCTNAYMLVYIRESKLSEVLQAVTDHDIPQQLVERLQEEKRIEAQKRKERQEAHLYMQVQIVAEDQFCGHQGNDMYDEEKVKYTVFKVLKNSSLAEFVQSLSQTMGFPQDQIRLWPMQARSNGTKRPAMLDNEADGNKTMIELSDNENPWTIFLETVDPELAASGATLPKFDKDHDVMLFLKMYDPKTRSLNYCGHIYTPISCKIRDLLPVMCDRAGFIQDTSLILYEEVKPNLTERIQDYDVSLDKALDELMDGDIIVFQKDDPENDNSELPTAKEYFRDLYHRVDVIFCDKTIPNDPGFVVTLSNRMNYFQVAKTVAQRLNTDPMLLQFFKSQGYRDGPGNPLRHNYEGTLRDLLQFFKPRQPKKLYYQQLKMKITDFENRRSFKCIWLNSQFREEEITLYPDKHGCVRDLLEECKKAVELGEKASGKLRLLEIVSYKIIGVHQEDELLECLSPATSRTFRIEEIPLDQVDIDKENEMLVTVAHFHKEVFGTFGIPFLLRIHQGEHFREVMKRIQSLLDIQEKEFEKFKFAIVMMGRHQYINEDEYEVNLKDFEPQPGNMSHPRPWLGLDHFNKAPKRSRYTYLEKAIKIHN

SMILES | IC50
CC(CC(=O)N1CCC(O)(Cn2cnc3sccc3c2=O)CC1)c1ccccc1 (stereo not drawn) [Compound I-1, 3-((4-hydroxy-1-(3-phenylbutanoyl)piperidin-4-yl)methyl)thieno[2,3-d]pyrimidin-4(3H)-one] | 0.3 to 1 µM
CC(CC(=O)N1CCC(O)(Cn2cnc3sc4c(c3c2=O)CCCC4)CC1)c1ccccc1 (stereo not drawn) [Compound I-2, 3-((4-hydroxy-1-(3-phenylbutanoyl)piperidin-4-yl)methyl)-5,6,7,8-tetrahydrobenzo[4,5]thieno[2,3-d]pyrimidin-4(3H)-one] | > 10 µM
CC(CC(=O)N1CCC(O)(Cn2cnc3sc4c(c3c2=O)CCC4)CC1)c1ccccc1 (stereo not drawn) [Compound I-3, 3-((4-hydroxy-1-(3-phenylbutanoyl)piperidin-4-yl)methyl)-3,5,6,7-tetrahydro-4H-cyclopenta[4,5]thieno[2,3-d]pyrimidin-4-one] | 1 to 10 µM
CCCc1cc2c(=O)n(CC3(O)CCN(C(=O)CC(C)c4ccccc4)CC3)cnc2s1 (stereo not drawn) [Compound I-4, 3-((4-hydroxy-1-(3-phenylbutanoyl)piperidin-4-yl)methyl)-6-propylthieno[2,3-d]pyrimidin-4(3H)-one] | 0.3 to 1 µM
CCC(CC(=O)N1CCC(O)(Cn2cnc3sccc3c2=O)CC1)c1ccccc1 (stereo not drawn) [Compound I-5, 3-((4-hydroxy-1-(3-phenylpentanoyl)piperidin-4-yl)methyl)thieno[2,3-d]pyrimidin-4(3H)-one] | 1 to 10 µM
Cc1cc2c(=O)n(CC3(O)CCN(C(=O)CC(C)c4ccccc4)CC3)cnc2s1 (stereo not drawn) [Compound I-6, 3-((4-hydroxy-1-(3-phenylbutanoyl)piperidin-4-yl)methyl)-6-methylthieno[2,3-d]pyrimidin-4(3H)-one] | < 0.3 µM
CCc1cc2c(=O)n(CC3(O)CCN(C(=O)CC(C)c4ccccc4)CC3)cnc2s1 (stereo not drawn) [Compound I-7, 6-ethyl-3-((4-hydroxy-1-(3-phenylbutanoyl)piperidin-4-yl)methyl)thieno[2,3-d]pyrimidin-4(3H)-one] | < 0.3 µM
Cc1sc2ncn(CC3(O)CCN(C(=O)CC(C)c4ccccc4)CC3)c(=O)c2c1C (stereo not drawn) [Compound I-8, 3-((4-hydroxy-1-(3-phenylbutanoyl)piperidin-4-yl)methyl)-5,6-dimethylthieno[2,3-d]pyrimidin-4(3H)-one] | > 10 µM
COc1ccc(C(=O)N2CCC(O)(Cn3cnc4c(-c5ccc(F)cc5)csc4c3=O)CC2)cc1 [Compound I-9, 7-(4-fluorophenyl)-3-((4-hydroxy-1-(4-methoxybenzoyl)piperidin-4-yl)methyl)thieno[3,2-d]pyrimidin-4(3H)-one] | 1 to 10 µM
O=C(c1ccccc1)N1CCC(O)(Cn2cnc3c(-c4ccc(F)cc4)csc3c2=O)CC1 [Compound I-10, 3-((1-benzoyl-4-hydroxypiperidin-4-yl)methyl)-7-(4-fluorophenyl)thieno[3,2-d]pyrimidin-4(3H)-one] | 1 to 10 µM
CN(C)C/C=C/C(=O)NCCCCC(=O)N1CCC(O)(Cn2cnc3c(-c4ccc(F)cc4)csc3c2=O)CC1 [Compound I-11, (E)-4-(dimethylamino)-N-(5-(4-((7-(4-fluorophenyl)-4-oxothieno[3,2-d]pyrimidin-3(4H)-yl)methyl)-4-hydroxypiperidin-1-yl)-5-oxopentyl)but-2-enamide] | 1 to 10 µM
CN(C)C/C=C/C(=O)NCCCC(=O)N1CCC(O)(Cn2cnc3c(-c4ccc(F)cc4)csc3c2=O)CC1 [Compound I-12, (E)-4-(dimethylamino)-N-(4-(4-((7-(4-fluorophenyl)-4-oxothieno[3,2-d]pyrimidin-3(4H)-yl)methyl)-4-hydroxypiperidin-1-yl)-4-oxobutyl)but-2-enamide] | 1 to 10 µM
